Results reported in patent US6969721B2, “Tricyclic-2-pyridone compounds useful as HIV reverse transcriptase inhibitors” (Bristol-Myers Squibb Pharma, priority 2000, dated 2005).

| melting point [°C] | SMILES |
| --- | --- |
| 270 to 275 | O=c1[nH]ccc2c1Nc1ccc(Cl)cc1C2(Cc1ccccn1)C(F)(F)F (centres unmarked) [Example 19, 7-Chloro-5-(2-pyridylmethyl)-5-trifluoromethyl-5,10-dihydrobenzo[b]-1,7-naphthyridin-1(2H)-one] |
| 235 to 240 | CC(C)NCC1(C(F)(F)F)c2cc(Cl)ccc2Nc2c1cc[nH]c2=O (centres unmarked) [Example 30, 7-Chloro-5-(i-propylaminomethyl)-5-trifluoromethyl-5,10-dihydrobenzo[b]-1,7-naphthyridin-1(2H)-one] |
| 185 to 190 | CC(C)OCC1(C(F)(F)F)c2cc(Cl)ccc2Nc2c1cc[nH]c2=O (centres unmarked) [Example 28, 7-Chloro-5-(i-propoxymethyl)-5-trifluoromethyl-5,10-dihydrobenzo[b]-1,7-naphthyridin-1(2H)-one] |
| 177 to 179 | CCCCC1(C)c2cc(Cl)ccc2Nc2c1cc[nH]c2=O (centres unmarked) [Example 61a, 7-Chloro-5-(n-butyl)-5-methyl-5,10-dihydrobenzo[b]-1,7-naphthyridin-1(2H)-one] |
| 220 to 221 | CC(C)SCC1(C(F)(F)F)c2cc(Cl)ccc2Nc2c1cc[nH]c2=O (centres unmarked) [Example 44, 7-Chloro-5-(i-propylsulfanylmethyl)-5-trifluoromethyl-5,10-dihydrobenzo[b]-1,7-naphthyridin-1(2H)-one] |
| 243 to 245 | CCCNCC1(C(F)(F)F)c2cc(Cl)ccc2Nc2c1cc[nH]c2=O (centres unmarked) [Example 33, 7-Chloro-5-(n-propylaminomethyl)-5-trifluoromethyl-5,10-dihydrobenzo[b]-1,7-naphthyridin-1(2H)-one] |
| 182 to 185 | CCCCC1(C#N)c2cc(Cl)ccc2Nc2c1cc[nH]c2=O (centres unmarked) [Example 63, 7-Chloro-5-(n-butyl)-5-cyano-5,10-dihydrobenzo[b]-1,7-naphthyridin-1(2H)-one] |
| 132.2 to 134.7 | CCCCC1(C(C)(F)F)c2cc(C#N)ccc2Nc2c1cc[nH]c2=O (centres unmarked) [Example 67, 7-Cyano-5-(n-butyl)-5-(1,1-difluoroethyl)-5,10-dihydrobenzo[b]-1,7-naphthyridin-1(2H)-one] |
| 267 to 270 | CCCCC1(C(C)(F)F)c2cc(F)ccc2Nc2c1cc[nH]c2=O (centres unmarked) [Example 66, 5-(n-Butyl)-5-(1,1-difluoroethyl)-7-Fluoro-5,10-dihydrobenzo[b]-1,7-naphthyridin-1(2H)-one] |
| 260 to 265 | CCCCC1(CO)c2cc(Cl)ccc2Nc2c1cc[nH]c2=O (centres unmarked) [Example 64, 7-Chloro-5-(n-butyl)-5-(hydroxymethyl)-5,10-dihydrobenzo[b]-1,7-naphthyridin-1(2H)-one] |
| 195 to 197 | CC(C)OCC1(C(F)(F)F)c2cc(Cl)ccc2Nc2c1cc[nH]c2=O (centres unmarked) [Example 36, 7-Chloro-5-(i-propoxymethyl)-5-trifluoromethyl-5,10-dihydrobenzo[b]-1,7-naphthyridin-1(2H)-one] |
| 210 to 215 | CC(C)CNCC1(C(F)(F)F)c2cc(Cl)ccc2Nc2c1cc[nH]c2=O (centres unmarked) [Example 35, 7-Chloro-5-(i-butylaminomethyl)-5-trifluoromethyl-5,10-dihydrobenzo[b]-1,7-naphthyridin-1(2H)-one] |
| 138 to 142 | CC(C)OCC1(C(F)F)c2cc(Cl)ccc2Nc2c1cc[nH]c2=O (centres unmarked) [Example 64b, 7-Chloro-5-(i-propoxymethyl)-5-difluoromethyl-5,10-dihydrobenzo[b]-1,7-naphthyridin-1(2H)-one] |
| 105 to 110 | CC(C)N(C)CC1(C(F)(F)F)c2cc(Cl)ccc2Nc2c1cc[nH]c2=O (centres unmarked) [Example 31, 7-Chloro-5-(N-methyl-N-i-propylaminomethyl)-5-trifluoromethyl-5,10-dihydrobenzo[b]-1,7-naphthyridin-1(2H)-one] |
| 245 to 248 | CCCCC1(C(F)(F)F)c2cc(Cl)ccc2Nc2c1cc[nH]c2=O (centres unmarked) [Example 18, 5-Butyl-7-chloro-5-trifluoromethyl-5,10-dihydrobenzo[b]-1,7-naphthyridin-1(2H)-one] |
| 270 to 275 | O=c1[nH]ccc2c1Nc1ccc(Cl)cc1C2(CO)C(F)(F)F (centres unmarked) [Example 23, 7-Chloro-5-hydroxymethyl-5-trifluoromethyl-5,10-dihydrobenzo[b]-1,7-naphthyridin-1(2H)-one] |
| 242 to 245 | O=c1[nH]ccc2c1Nc1ccc(Cl)cc1C2(CNC1CC1)C(F)(F)F (centres unmarked) [Example 32, 7-Chloro-5-(cyclopropylaminomethyl)-5-trifluoromethyl-5,10-dihydrobenzo[b]-1,7-naphthyridin-1(2H)-one] |
| 198 to 200 | CCCCC1(C(F)F)c2cc(Cl)ccc2Nc2c1cc[nH]c2=O (centres unmarked) [Example 64a, 7-Chloro-5-(n-butyl)-5-difluoromethyl-5,10-dihydrobenzo[b]-1,7-naphthyridin-1(2H)-one] |
| 265 to 267 | CCOCC1(C(C)(F)F)c2cc(Cl)ccc2Nc2c1cc[nH]c2=O (centres unmarked) [Example 68, 7-Chloro-5-(ethoxymethyl)-5-(1,1-difluoroethyl)-5,10-dihydrobenzo[b]-1,7-naphthyridin-1(2H)-one] |
| 230 to 235 | O=c1[nH]ccc2c1Nc1ccc(Cl)cc1C2(CNC1CC1)C(F)(F)F (centres unmarked) [Example 22, 7-Chloro-5-(N-cyclopropylaminomethyl)-5-trifluoromethyl-5,10-dihydrobenzo[b]-1,7-naphthyridin-1(2H)-one] |
| 268 to 271 | COCCC1(C(F)(F)F)c2cc(Cl)ccc2Nc2c1cc[nH]c2=O (centres unmarked) [Example 29, 7-Chloro-5-(2-methoxyethyl)-5-trifluoromethyl-5,10-dihydrobenzo[b]-1,7-naphthyridin-1(2H)-one] |
| 215 to 216 | CC(C)SCC1(C(F)(F)F)c2cc(F)ccc2Nc2c1cc[nH]c2=O (centres unmarked) [Example 45, 7-Fluoro-5-(i-propylsulfanylmethyl)-5-trifluoromethyl-5,10-dihydrobenzo[b]-1,7-naphthyridin-1(2H)-one] |
| 220 to 222 | O=c1[nH]ccc2c1Nc1ccc(Cl)cc1C2(CCC1CC1)C(F)(F)F (centres unmarked) [Example 20, 7-Chloro-5-(2-cyclopropylethyl)-5-trifluoromethyl-5,10-dihydrobenzo[b]-1,7-naphthyridin-1(2H)-one] |
| 120 to 122 | CCCCC1(C(C)(F)F)c2cc(Cl)ccc2Nc2c1cc[nH]c2=O (centres unmarked) [Example 65, 7-Chloro-5-(n-butyl)-5-(1,1-difluoroethyl)-5,10-dihydrobenzo[b]-1,7-naphthyridin-1(2H)-one] |
| 247 to 249 | CC(C)(C)SCC1(C(F)(F)F)c2cc(Cl)ccc2Nc2c1cc[nH]c2=O (centres unmarked) [Example 46, 7-Chloro-5-(t-butylsulfanylmethyl)-5-trifluoromethyl-5,10-dihydrobenzo[b]-1,7-naphthyridin-1(2H)-one] |
| 250 to 254 | O=c1[nH]ccc2c1Nc1ccc(Cl)cc1C2(CNC1CCC1)C(F)(F)F (centres unmarked) [Example 34, 7-Chloro-5-(cyclobutylaminomethyl)-5-trifluoromethyl-5,10-dihydrobenzo[b]-1,7-naphthyridin-1(2H)-one] |
| 247 to 250 | O=c1[nH]ccc2c1Nc1ccc(Cl)cc1C2(C#CC1CC1)C(F)(F)F (centres unmarked) [Example 21, 7-Chloro-5-cyclopropylethynyl-5-trifluoromethyl-5,10-dihydrobenzo[b]-1,7-naphthyridin-1(2H)-one] |
| 240 to 245 | CCOCCC1(C(F)(F)F)c2cc(Cl)ccc2Nc2c1cc[nH]c2=O (centres unmarked) [Example 62, 7-Chloro-5-(ethoxyethyl)-5-trifluoromethyl-5,10-dihydrobenzo[b]-1,7-naphthyridin-1(2H)-one] |
| 162 to 165 | CCCOCC1(C(F)(F)F)c2cc(Cl)ccc2Nc2c1cc[nH]c2=O (centres unmarked) [Example 27, 7-Chloro-5-(n-propoxymethyl)-5-trifluoromethyl-5,10-dihydrobenzo[b]-1,7-naphthyridin-1(2H)-one] |
